A short description of test [1]: Efficacy test: odor of incubated underarm sweat judged by a panel of experts against control sweat. Also noted: species or system human. To be noted: 37° C, average of 18 hours and 24 hours, compared with control sweat. How it is done: Underarm sweat was collected from six volunteers in a sauna, the samples of individual sweat, stored in ice for a few hours, are at that point virtually odorless. They were subsequently mixed together and divided into 1 ml aliquots. The active agents were added to these aliquots, which were then incubated in an oven at 37° C. After these samples were incubated for 18 and 24 hours, a panel of experts evaluated the intensity of the odor compared with a control sample, which was 1 ml of sweat incubated without addition of active agent.
The results are expressed below as a percentage of change in the unpleasantness of the odor compared with this control sweat sample (average of the percentages of change at 18 hours and 24 hours).
The active agents (A) and (B) correspond to zinc salicylate trihydrate from Bernardy Chimie and to the active agent (C) containing Triclosan.

The next test deals with Corynebacterium xerosis. Nature of the test: Bactericidal activity of a composition on microorganisms involved in underarm odor. The format is cell-based. To be noted: summary in text for the active agent. How it is done:
The test described herein allows a quantitative determination of the bactericidal activity of a composition on microorganisms under optimum growth conditions, i.e., microorganisms of the Corynebacterium xerosis type (Institut Pasteur Collection No. 5216) grown on soybean tryptocasein agar on a slope.
On the day before the test, 32 g of soybean tryptocasein broth were placed in a pill bottle and incubated at 35° C. On the day of the test, 4 g of the test composition were added and the mixture was homogenized using a Vortex mixer.
A product-free growth control was prepared under the same conditions in order to check that the microorganisms were under favorable growth conditions throughout the duration of the test.
For the preparation of the inoculum, five days before the start of the test, the two bacterial strains were subcultured on a suitable medium. Incubation was performed for 5 days at 35° C. On the day of the test, the slope was washed with about 9 ml of diluent: the suspension obtained has a titre of […] (counting was performed). […]
The colonies were counted on the dishes containing more than 20 and less than 200 colonies. […]
The bactericidal activity of each of the formulations 2, 3 and 4 with respect to the strain Corynebacterium xerosis was measured and compared with a formulation without active agent.

For `Oc1cc(Cl)ccc1Oc1ccc(Cl)cc1Cl` [(C), 2,4,4′-trichloro-2′-hydroxydiphenyl ether, reference compound], the “% change in the unpleasantness of odor” value in test [1] (0.8 mg AM/ml of sweat) is listed as −55%.
Turning to Zinc salicylate, the “antibacterial activity on the Corynebacterium xerosis strains” value in the test with Corynebacterium xerosis was “low (1 Log of reduction: low)”.
Consider zinc salicylate trihydrate [(A)], for which the “% change in the unpleasantness of odor” value in test [1] (1 mg AM/ml of sweat) is −45%; in test [1] (5 mg AM/ml of sweat) it was −48%.

Values taken from patent US20050019288A1, “Alcohol-based aerosol deodorant composition comprising at lease one zinc salicylate or a derivative thereof” (priority 2003, published 2005).
